Results: patent US20110008475A1, “USE OF AN EMULSION OF MINT OIL OR OF L-CARVONE FOR THE FUNGICIDAL TREATMENT OF FRUIT, VEGETABLES OR PLANTS” (priority 2007, published 2011)

Test system: Peronospora brassicae (cabbage mildew)
Assay: Effect of L-carvone on cabbage mildew (infected cabbages treated after inoculation)
Format: in vivo
Details: cabbages infected with Peronospora brassicae, treated rapidly after inoculation; L-carvone at a minimal concentration of 1%; 21 days; FIG. 1
Excerpt: Cabbages were infected with Peronospora brassicae (cabbage mildew) then treated rapidly after inoculation with L-carvone or Aliette.

SMILES: C=C(C)C1CC=C(C)C(=O)C1 [L-carvone, 2-methyl-5-(1-methylethenyl)-2-cyclohexen-1-one]
- control of the infection by cabbage mildew: able to control the infection effectively for 21 days
